In one test the target is T1, His-BIR3 (241-356, XIAP) (Homo sapiens, UniProt P98170).
T1 construct: His-BIR3 (241-356, XIAP)
The experiment in a line: XIAP-BIR3/SMAC Homogeneous Time Resolved Fluorescence (HTRF) Assay. Format: binding. As to conditions: 1 nM N-His-BIR3, 5 nM fluorescein labeled SMAC peptide. The method, then: A. XIAP-BIR3/SMAC Homogeneous Time Resolved Fluorescence (HTRF) Assay
Assays were performed in black, flat-bottom, 384-well plates. The final assay volume was 50 μL prepared from additions of His-BIR3 (241-356, XIAP), fluorescein labeled SMAC peptide, and test compounds in assay buffer consisting of 20 mM Sodium Phosphate, 1 mM EDTA, 50 mM NaCl, 50 μg/ml BSA, and 0.05% PLURONIC® F68. The reaction was incubated at room temperature for 60 minutes, following which 10 μl of mouse anti-6×His-terbium labeled Fab (Medarex, Cis-bio) was added to the reaction (40 μl) for an additional 30 minute incubation. The HTRF signal, ratio of fluorescence intensities at emission wavelengths for fluorescein acceptor (520 nm) and terbium donor (615 nm), the 520/615 ratio, generated by the reaction was then measured on the Envision Plate Reader Inhibition data were calculated from the 520/615 ratio generated by the no protein control reactions for 100% inhibition and vehicle-only reactions for 0% inhibition. The final concentration of reagents in the assay was 1 nM N-His-BIR3 (241-356, XIAP), 5 nM fluorescein labeled SMAC peptide, 0.25 nM anti-His-Tb-Fab, and 0.1% DMSO. Dose response curves were generated to determine the concentration required for inhibiting 50% of the HTRF signal (IC50). Compounds were dissolved at 3 mM in dimethylsulfoxide (DMSO) and evaluated at eleven serially diluted concentrations. IC50 and Ki values were derived by non-linear regression analysis.
On the technique in general: TR-FRET usually uses a lanthanide donor and a delayed reading to cut background.

In test [1] the target is T2, His-BIR2-3 (125-356, C202A/C213G, XIAP) (Homo sapiens, UniProt P98170, C202A/C213G).
T2 construct: His-BIR2-3 (125-356, C202A/C213G, XIAP)
The test is described as follows: XIAP-BIR2-3 dimeric SMAC Peptide Homogeneous Time Resolved Fluorescence (HTRF) Assay. In kind it is binding. As to conditions: 0.5 nM N-His-BIR2-3, 20 nM fluorescein labeled dimeric SMAC peptide. The method, then:
B. XIAP-BIR2-3 dimeric SMAC Peptide Homogeneous Time Resolved Fluorescence (HTRF) Assay
Assays were performed in black, flat-bottom, 384-well plates. The final assay volume was 50 μL prepared from additions of His-BIR2-3 (125-356, C202A/C213G, XIAP), fluorescein labeled dimeric SMAC peptide, and test compounds in assay buffer consisting of 20 mM Sodium Phosphate, 1 mM EDTA, 50 mM NaCl, 50 μg/ml BSA, and 0.05% PLURONIC® F68. The reaction was incubated at room temperature for 60 minutes, following which 10 μl of mouse anti-6×His-Tb IgG (Medarex, Cis-bio) was added to the reaction (40 μl) for an additional 30 minute incubation. The HTRF signal, ratio of fluorescence intensities at emission wavelengths for fluorescein acceptor (520 nm) and terbium donor (615 nm), the 520/615 ratio, generated by the reaction was then measured on the Envision Plate Reader. Inhibition data were calculated from the 520/615 ratio generated by the no protein control reactions for 100% inhibition and vehicle-only reactions for 0% inhibition. The final concentration of reagents in the assay was 0.5 nM N-His-BIR2-3(125-356, C202A/C213G, XIAP), 20 nM fluorescein labeled dimeric SMAC peptide, 0.25 nM anti-His-Tb-Fab, and 0.1% DMSO. Dose response curves were generated to determine the concentration required for inhibiting 50% of the HTRF signal (IC50). Compounds were dissolved at 3 mM in dimethylsulfoxide (DMSO) and evaluated at eleven serially diluted concentrations. IC50 and Ki values were derived by non-linear regression analysis.

Molecules are shown by their SMILES.

The source of these data is patent US9637518B2, “IAP antagonists” (BRISTOL-MYERS SQUIBB COMPANY, priority 2014, dated 2017).

Usually IC50 stands for the midpoint of a concentration-inhibition curve. Low values mean greater potency, high ones weaker potency.

T1 sequence (P98170 241-356): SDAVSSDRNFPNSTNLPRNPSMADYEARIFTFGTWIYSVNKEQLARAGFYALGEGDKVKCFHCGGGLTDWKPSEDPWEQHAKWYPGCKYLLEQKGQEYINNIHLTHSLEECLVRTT
T2 sequence (P98170 125-356 C202A/C213G): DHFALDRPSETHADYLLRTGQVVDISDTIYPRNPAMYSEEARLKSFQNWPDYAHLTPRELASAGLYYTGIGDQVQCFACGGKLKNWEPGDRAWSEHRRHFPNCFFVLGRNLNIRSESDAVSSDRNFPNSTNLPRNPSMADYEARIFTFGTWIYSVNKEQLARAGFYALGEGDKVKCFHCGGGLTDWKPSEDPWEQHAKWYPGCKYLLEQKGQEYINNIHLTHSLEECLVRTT

With `CN[C@@H](C)C(=O)N[C@H](C(=O)N[C@@H](Cc1ccc(C(=O)N[C@H]2C[C@@H](C(=O)N[C@@H]3CCCc4ccccc43)N(C(=O)[C@@H](NC(=O)[C@H](C)NC)C(C)(C)C)C2)cc1)C(=O)N[C@@H]1CCCc2ccccc21)C(C)(C)C` [Example 5, (2S,4S)-4-(4-((S)-2-((S)-3,3-Dimethyl-2-((S)-2-(methylamino)propanamido)butanamido)-3-oxo-3-(((R)-1,2,3,4-tetrahydronaphthalen-1-yl)amino)propyl)benzamido)-1-((S)-3,3-dimethyl-2-((S)-2-(methylamino)propanamido)butanoyl)-N—((R)-1,2,3,4-tetrahydronaphthalen-1-yl)pyrrolidine-2-carboxamide], the IC50 is 9 nM against His-BIR3 (241-356, XIAP) and 13.7 nM in test [1].
As to `CN[C@@H](C)C(=O)N[C@H](C(=O)N[C@@H](Cc1ccc([C@H]2C[C@@H](C(=O)N[C@@H]3CCCc4ccccc43)N(C(=O)[C@@H](NC(=O)[C@H](C)NC)C(C)(C)C)C2)cc1)C(=O)N[C@@H]1CCCc2ccccc21)C(C)(C)C` [Example 3, (2S,4R)-4-(4-((S)-2-((S)-3,3-Dimethyl-2-((S)-2-(methylamino)propanamido)butanamido)-3-oxo-3-(((R)-1,2,3,4-tetrahydronaphthalen-1-yl)amino)propyl)phenyl)-1-((S)-3,3-dimethyl-2-((S)-2-(methylamino)propanamido)butanoyl)-N—((R)-1,2,3,4-tetrahydronaphthalen-1-yl)pyrrolidine-2-carboxamide], the IC50 on His-BIR3 (241-356, XIAP) worked out at 1.1 nM; in test [1], 6.8 nM.
The like results for `CN[C@@H](C)C(=O)N[C@H](C(=O)N[C@@H](Cc1ccc(NC(=O)c2ccc(C(=O)N[C@H]3C[C@@H](C(=O)N[C@@H]4CCCc5ccccc54)N(C(=O)[C@@H](NC(=O)[C@H](C)NC)C(C)(C)C)C3)cc2)cc1)C(=O)N[C@@H]1CCCc2ccccc21)C1CCCCC1` [Example 8, N^1-(4-((S)-2-((S)-2-Cyclohexyl-2-((S)-2-(methylamino)propanamido)acetamido)-3-oxo-3-(((R)-1,2,3,4-tetrahydronaphthalen-1-yl)amino)propyl)phenyl)-N^4-((3S,5S)-1-((S)-3,3-dimethyl-2-((S)-2-(methylamino)propanamido)butanoyl)-5-(((R)-1,2,3,4-tetrahydronaphthalen-1-yl)carbamoyl)pyrrolidin-3-yl)terephthalamide] were, in that order, 119 nM and 9.5 nM.
With `CN[C@@H](C)C(=O)N[C@H](C(=O)N1C[C@@H](NC(=O)c2ccc(C(=O)Nc3ccc(C[C@H](NC(=O)[C@@H](NC(=O)[C@H](C)NC)C(C)(C)SC)C(=O)N[C@@H]4CCCc5ccccc54)cc3)cc2)C[C@H]1C(=O)N[C@@H]1CCCc2ccccc21)C(C)(C)C` [Example 4, N^1-((3S,5S)-1-((S)-3,3-Dimethyl-2-((S)-2-(methylamino)propanamido)butanoyl)-5-(((R)-1,2,3,4-tetrahydronaphthalen-1-yl)carbamoyl)pyrrolidin-3-yl)-N^4-(4-((S)-2-((R)-3-methyl-2-((S)-2-(methylamino)propanamido)-3-(methylthio)butanamido)-3-oxo-3-(((R)-1,2,3,4-tetrahydronaphthalen-1-yl)amino)propyl)phenyl)terephthalamide], the IC50 against His-BIR3 (241-356, XIAP) was found to be 13.8 nM; in test [1] it was 2.9 nM.
Regarding `CN[C@@H](C)C(=O)N[C@H](C(=O)N1C[C@@H](c2ccc(C[C@H](NC(=O)[C@@H](NC(=O)[C@H](C)NC)C(C)(C)SCC(=O)N(C)C[C@@H](O)CO)C(=O)N[C@@H]3CCCc4ccccc43)cc2)C[C@H]1C(=O)N[C@@H]1CCCc2ccccc21)C(C)(C)C` [Example 1, (2S,4R)-4-(4-((S)-2-((R)-3-((2-(((R)-2,3-Dihydroxypropyl)(methyl)amino)-2-oxoethyl)thio)-3-methyl-2-((S)-2-(methylamino)propanamido)butanamido)-3-oxo-3-(((R)-1,2,3,4-tetrahydronaphthalen-1-yl)amino)propyl)phenyl)-1-((S)-3,3-dimethyl-2-((S)-2-(methylamino)propanamido)butanoyl)-N—((R)-1,2,3,4-tetrahydronaphthalen-1-yl)pyrrolidine-2-carboxamide], the IC50 was determined as 1.7 nM against His-BIR3 (241-356, XIAP) and 12.3 nM in test [1].
In the case of `CN[C@@H](C)C(=O)N[C@H](C(=O)N1C[C@@H](c2ccc(C[C@H](NC(=O)[C@@H](NC(=O)[C@H](C)NC)C(C)(C)SCCO)C(=O)N[C@@H]3CCCc4ccccc43)cc2)C[C@H]1C(=O)N[C@@H]1CCCc2ccccc21)C(C)(C)C` [Example 2, (2S,4R)-1-((S)-3,3-Dimethyl-2-((S)-2-(methylamino)propanamido)butanoyl)-4-(4-((S)-2-((R)-3-((2-hydroxyethyl)thio)-3-methyl-2-((S)-2-(methylamino)propanamido)butanamido)-3-oxo-3-(((R)-1,2,3,4-tetrahydronaphthalen-1-yl)amino)propyl)phenyl)-N—((R)-1,2,3,4-tetrahydronaphthalen-1-yl)pyrrolidine-2-carboxamide], the IC50 worked out at 1.7 nM on His-BIR3 (241-356, XIAP) and 7 nM in test [1].
Consider `CN[C@@H](C)C(=O)N[C@H](C(=O)N1C[C@@H](c2ccc(C[C@H](NC(=O)[C@@H](NC(=O)[C@H](C)NC)C(C)(C)SCC(=O)NC(CO)CO)C(=O)NC3CCCc4ccccc43)cc2)C[C@H]1C(=O)NC1CCCc2ccccc21)C(C)(C)C` (stereo partly shown) [Example 6], for which the IC50 against His-BIR3 (241-356, XIAP) is 1.4 nM; in test [1], 8.1 nM.
The like results for `CN[C@@H](C)C(=O)N[C@H](C(=O)N[C@@H](Cc1ccc([C@H]2C[C@@H](C(=O)N[C@@H](COC)c3ccccc3)N(C(=O)[C@@H](NC(=O)[C@H](C)NC)C(C)(C)C)C2)cc1)C(=O)N[C@@H]1CCCc2ccccc21)C(C)(C)C` [Example 7, (2S,4R)-4-(4-((S)-2-((S)-3,3-Dimethyl-2-((S)-2-(methylamino)propanamido)butanamido)-3-oxo-3-(((R)-1,2,3,4-tetrahydronaphthalen-1-yl)amino)propyl)phenyl)-1-((S)-3,3-dimethyl-2-((S)-2-(methylamino)propanamido)butanoyl)-N-((R)-2-methoxy-1-phenylethyl)pyrrolidine-2-carboxamide] were, in that order, 48.4 nM and 140 nM.
